Experimental data taken from the kinase profiling compilation of Christmann-Franck et al. (2016).

Key:
Experiment in all cases: split-luciferase competition binding
[1] = target: AKT1 (human) (UniProt P31749); details: compound 10.0 µM
[2] = target: RPS6KA5 KD1 (human) (UniProt O75582); details: compound 10.0 µM
[3] = target: AURKA (human) (UniProt O14965); details: compound 10.0 µM
[4] = target: PRKCH (human) (UniProt P24723); details: compound 10.0 µM
[5] = target: RPS6KA3 KD1 (human) (UniProt P51812); details: compound 10.0 µM
[6] = target: PRKCI (human) (UniProt P41743); details: compound 10.0 µM
[7] = target: PRKCE (human) (UniProt Q02156); details: compound 10.0 µM
[8] = target: PRKCD (human) (UniProt Q05655); details: compound 10.0 µM
[9] = target: AKT3 (human) (UniProt Q9Y243); details: compound 10.0 µM
[10] = target: AKT2 (human) (UniProt P31751); details: compound 10.0 µM
[11] = target: PDPK1 (human) (UniProt O15530); details: compound 10.0 µM
[12] = target: PRKCG (human) (UniProt P05129); details: compound 10.0 µM
[13] = target: SGK2 (human) (UniProt Q9HBY8); details: compound 10.0 µM
[14] = target: DMPK (human) (UniProt Q09013); details: compound 10.0 µM
[15] = target: PRKACB (human) (UniProt P22694); details: compound 10.0 µM
[16] = target: RPS6KA4 KD1 (human) (UniProt O75676); details: compound 10.0 µM
[17] = target: PKN1 (human) (UniProt Q16512); details: compound 10.0 µM
[18] = target: PRKCQ (human) (UniProt Q04759); details: compound 10.0 µM
[19] = target: SGK3 (human) (UniProt Q96BR1); details: compound 10.0 µM
[20] = target: AURKB (human) (UniProt Q96GD4); details: compound 10.0 µM
[21] = target: RPS6KA1 KD1 (human) (UniProt Q15418); details: compound 10.0 µM
[22] = target: RPS6KA2 KD1 (human) (UniProt Q15349); details: compound 10.0 µM
[23] = target: PRKX (human) (UniProt P51817); details: compound 10.0 µM
[24] = target: AURKC (human) (UniProt Q9UQB9); details: compound 10.0 µM
[25] = tested on: PRKACA (mouse); details: compound 10.0 µM; accession and sequence are those of the human protein
[26] = target: RPS6KA6 KD1 (human) (UniProt Q9UK32); details: compound 10.0 µM
[27] = target: STK32B (human) (UniProt Q9NY57); details: compound 10.0 µM

RPS6KA1 KD1 (human), sequence (Q15418 whole entry, looked up): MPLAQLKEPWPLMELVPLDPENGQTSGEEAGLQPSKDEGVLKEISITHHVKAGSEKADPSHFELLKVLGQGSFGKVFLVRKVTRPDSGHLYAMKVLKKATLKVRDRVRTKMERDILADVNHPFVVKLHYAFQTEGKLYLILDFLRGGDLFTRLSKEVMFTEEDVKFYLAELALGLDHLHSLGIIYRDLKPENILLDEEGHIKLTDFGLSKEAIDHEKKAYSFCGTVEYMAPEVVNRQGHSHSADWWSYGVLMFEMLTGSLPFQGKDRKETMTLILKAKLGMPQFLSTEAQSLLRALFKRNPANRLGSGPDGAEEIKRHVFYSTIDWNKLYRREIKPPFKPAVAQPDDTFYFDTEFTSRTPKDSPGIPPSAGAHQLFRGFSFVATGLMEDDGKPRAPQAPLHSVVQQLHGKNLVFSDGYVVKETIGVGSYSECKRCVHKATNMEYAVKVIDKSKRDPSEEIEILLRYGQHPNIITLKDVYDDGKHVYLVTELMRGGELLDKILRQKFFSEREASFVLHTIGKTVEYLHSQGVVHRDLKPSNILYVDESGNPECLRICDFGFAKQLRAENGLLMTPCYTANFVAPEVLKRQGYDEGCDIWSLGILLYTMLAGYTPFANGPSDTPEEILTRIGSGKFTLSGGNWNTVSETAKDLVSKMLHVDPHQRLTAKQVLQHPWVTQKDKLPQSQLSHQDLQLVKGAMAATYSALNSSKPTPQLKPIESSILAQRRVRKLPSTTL
PKN1 (human), sequence (Q16512 whole entry, looked up): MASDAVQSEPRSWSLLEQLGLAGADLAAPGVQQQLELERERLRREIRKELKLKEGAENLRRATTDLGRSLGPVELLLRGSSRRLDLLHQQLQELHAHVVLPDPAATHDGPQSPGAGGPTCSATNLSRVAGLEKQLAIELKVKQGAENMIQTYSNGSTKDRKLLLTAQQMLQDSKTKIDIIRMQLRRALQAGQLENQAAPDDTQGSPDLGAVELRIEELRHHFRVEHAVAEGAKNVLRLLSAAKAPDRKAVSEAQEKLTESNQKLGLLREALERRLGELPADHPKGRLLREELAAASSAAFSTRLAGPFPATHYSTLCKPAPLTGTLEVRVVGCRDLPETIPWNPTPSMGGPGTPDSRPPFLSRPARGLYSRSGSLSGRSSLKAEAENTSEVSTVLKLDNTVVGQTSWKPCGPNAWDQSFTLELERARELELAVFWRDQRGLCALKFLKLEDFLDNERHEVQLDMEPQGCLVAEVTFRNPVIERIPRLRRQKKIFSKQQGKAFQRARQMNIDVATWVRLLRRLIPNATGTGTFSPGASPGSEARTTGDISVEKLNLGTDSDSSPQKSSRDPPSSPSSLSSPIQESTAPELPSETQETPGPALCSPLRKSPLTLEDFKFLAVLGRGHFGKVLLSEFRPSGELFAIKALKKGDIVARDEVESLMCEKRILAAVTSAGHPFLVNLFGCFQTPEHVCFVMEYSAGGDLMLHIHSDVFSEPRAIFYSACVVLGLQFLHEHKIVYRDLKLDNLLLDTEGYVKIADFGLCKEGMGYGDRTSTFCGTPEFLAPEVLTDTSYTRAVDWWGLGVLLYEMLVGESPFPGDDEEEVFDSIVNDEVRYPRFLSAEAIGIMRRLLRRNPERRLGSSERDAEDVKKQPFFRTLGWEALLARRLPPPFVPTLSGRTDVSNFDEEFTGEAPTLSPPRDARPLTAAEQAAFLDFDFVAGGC
PRKCI (human), sequence (P41743 whole entry, looked up): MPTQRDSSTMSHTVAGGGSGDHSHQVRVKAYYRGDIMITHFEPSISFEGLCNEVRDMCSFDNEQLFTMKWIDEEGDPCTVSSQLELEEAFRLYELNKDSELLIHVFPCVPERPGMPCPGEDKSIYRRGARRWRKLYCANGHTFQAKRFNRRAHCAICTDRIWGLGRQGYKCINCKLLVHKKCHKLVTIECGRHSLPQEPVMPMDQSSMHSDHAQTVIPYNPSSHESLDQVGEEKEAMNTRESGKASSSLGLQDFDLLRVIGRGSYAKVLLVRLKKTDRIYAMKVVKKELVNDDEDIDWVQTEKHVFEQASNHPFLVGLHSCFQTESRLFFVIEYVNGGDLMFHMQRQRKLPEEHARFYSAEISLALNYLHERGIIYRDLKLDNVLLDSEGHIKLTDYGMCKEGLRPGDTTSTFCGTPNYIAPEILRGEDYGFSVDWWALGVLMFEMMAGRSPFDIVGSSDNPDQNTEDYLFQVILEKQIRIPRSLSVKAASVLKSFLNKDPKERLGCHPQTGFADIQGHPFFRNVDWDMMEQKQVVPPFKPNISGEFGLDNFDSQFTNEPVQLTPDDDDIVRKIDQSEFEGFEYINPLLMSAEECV
DMPK (human), sequence (Q09013 whole entry, looked up): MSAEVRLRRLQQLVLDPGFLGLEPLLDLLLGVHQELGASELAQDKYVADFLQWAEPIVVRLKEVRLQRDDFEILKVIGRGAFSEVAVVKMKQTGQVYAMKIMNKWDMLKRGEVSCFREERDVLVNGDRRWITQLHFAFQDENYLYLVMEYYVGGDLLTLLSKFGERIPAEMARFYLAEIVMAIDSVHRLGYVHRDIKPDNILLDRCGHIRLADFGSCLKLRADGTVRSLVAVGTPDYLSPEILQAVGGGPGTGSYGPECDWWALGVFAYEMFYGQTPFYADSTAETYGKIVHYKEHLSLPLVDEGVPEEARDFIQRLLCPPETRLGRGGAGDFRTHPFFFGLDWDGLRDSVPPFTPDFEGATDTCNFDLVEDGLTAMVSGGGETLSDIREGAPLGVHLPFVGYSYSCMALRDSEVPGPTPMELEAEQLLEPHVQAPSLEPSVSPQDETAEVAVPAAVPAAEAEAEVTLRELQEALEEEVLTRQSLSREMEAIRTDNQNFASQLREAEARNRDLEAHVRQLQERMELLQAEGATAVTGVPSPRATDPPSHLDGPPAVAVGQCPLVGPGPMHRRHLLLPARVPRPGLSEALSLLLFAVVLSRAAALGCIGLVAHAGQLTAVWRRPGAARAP
AKT3 (human), sequence (Q9Y243 whole entry, looked up): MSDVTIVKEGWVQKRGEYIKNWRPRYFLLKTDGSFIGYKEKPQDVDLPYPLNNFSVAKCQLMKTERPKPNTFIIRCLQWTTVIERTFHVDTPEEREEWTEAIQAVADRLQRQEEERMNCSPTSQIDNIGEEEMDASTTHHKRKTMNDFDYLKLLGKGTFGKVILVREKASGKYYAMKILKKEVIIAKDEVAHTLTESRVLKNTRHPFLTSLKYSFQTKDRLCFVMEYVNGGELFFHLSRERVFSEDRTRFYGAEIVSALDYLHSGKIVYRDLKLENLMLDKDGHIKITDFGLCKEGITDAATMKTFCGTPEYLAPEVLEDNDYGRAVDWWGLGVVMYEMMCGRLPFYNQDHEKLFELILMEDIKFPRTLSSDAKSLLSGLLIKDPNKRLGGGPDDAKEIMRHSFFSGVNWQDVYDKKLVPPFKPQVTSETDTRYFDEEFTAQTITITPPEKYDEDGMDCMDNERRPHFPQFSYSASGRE
AURKA (human), sequence (O14965 whole entry, looked up): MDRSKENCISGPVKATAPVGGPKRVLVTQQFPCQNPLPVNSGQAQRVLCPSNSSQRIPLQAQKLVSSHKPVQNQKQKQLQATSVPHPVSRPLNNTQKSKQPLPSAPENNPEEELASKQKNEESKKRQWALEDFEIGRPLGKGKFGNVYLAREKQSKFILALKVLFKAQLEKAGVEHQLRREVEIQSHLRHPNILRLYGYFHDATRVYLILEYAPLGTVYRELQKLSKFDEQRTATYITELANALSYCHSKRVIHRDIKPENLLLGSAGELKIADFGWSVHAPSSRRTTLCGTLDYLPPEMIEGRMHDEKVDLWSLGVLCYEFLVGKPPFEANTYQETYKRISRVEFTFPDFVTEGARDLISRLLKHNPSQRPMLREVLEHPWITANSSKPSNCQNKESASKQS
PRKCD (human), sequence (Q05655 whole entry, looked up): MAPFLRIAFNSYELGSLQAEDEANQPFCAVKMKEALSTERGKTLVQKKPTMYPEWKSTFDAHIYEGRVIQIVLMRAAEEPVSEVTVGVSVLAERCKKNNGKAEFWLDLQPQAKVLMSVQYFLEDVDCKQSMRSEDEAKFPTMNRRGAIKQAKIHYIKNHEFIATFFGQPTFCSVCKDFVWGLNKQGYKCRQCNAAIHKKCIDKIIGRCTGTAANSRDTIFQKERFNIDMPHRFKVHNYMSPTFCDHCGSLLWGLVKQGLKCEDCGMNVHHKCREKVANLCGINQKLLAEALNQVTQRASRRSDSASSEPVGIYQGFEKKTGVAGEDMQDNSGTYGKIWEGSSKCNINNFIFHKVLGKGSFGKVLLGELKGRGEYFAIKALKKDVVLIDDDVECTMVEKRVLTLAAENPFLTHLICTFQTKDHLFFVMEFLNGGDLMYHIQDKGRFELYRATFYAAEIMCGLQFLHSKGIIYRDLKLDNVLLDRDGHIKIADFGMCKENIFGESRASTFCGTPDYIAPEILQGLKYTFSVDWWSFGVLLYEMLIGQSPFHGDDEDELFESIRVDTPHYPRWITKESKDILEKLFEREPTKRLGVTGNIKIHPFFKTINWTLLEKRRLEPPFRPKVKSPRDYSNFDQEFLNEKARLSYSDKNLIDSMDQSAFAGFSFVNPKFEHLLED
PRKX (human), sequence (P51817 whole entry, looked up): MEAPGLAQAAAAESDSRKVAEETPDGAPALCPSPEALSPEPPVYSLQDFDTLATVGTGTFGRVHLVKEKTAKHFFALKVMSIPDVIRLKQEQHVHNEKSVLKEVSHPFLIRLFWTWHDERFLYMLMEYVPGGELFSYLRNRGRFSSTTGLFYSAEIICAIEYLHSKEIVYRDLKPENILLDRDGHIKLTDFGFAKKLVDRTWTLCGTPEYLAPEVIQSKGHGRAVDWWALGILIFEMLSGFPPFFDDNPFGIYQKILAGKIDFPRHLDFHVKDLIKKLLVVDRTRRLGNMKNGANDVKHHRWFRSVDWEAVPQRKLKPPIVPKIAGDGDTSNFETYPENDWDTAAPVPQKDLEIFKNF

## CC(C)(C)n1nc(-c2ccc(Cl)cc2)c2c(N)ncnc21
[1]
  inhibition: 0%
[2]
  inhibition: 1%
[3]
  inhibition: 0%
[4]
  inhibition: 4%
[5]
  inhibition: 6%
[6]
  inhibition: 0%
[7]
  inhibition: 0%
[8]
  inhibition: 0%
[9]
  inhibition: 0%
[10]
  inhibition: 0%
[11]
  inhibition: 0%
[12]
  inhibition: 0%
[13]
  inhibition: 0%
[14]
  inhibition: 26%
[15]
  inhibition: 8%
[16]
  inhibition: 0%
[17]
  inhibition: 0%
[18]
  inhibition: 0%
[19]
  inhibition: 0%
[20]
  inhibition: 0%
[21]
  inhibition: 7%
[22]
  inhibition: 4%
[23]
  inhibition: 0%
[24]
  inhibition: 6%
[25]
  inhibition: 30%
[26]
  inhibition: 7%
[27]
  inhibition: 43%

## CN(C)CCCn1cc(C2=C(c3c[nH]c4ccccc34)C(=O)NC2=O)c2ccccc21
[1]
  inhibition: 5%
[2]
  inhibition: 39%
[3]
  inhibition: 2%
[4]
  inhibition: 77%
[5]
  inhibition: 33%
[6]
  inhibition: 35%
[7]
  inhibition: 37%
[8]
  inhibition: 52%
[9]
  inhibition: 37%
[10]
  inhibition: 0%
[11]
  inhibition: 0%
[12]
  inhibition: 11%
[13]
  inhibition: 0%
[14]
  inhibition: 34%
[15]
  inhibition: 34%
[16]
  inhibition: 30%
[17]
  inhibition: 5%
[18]
  inhibition: 69%
[19]
  inhibition: 2%
[20]
  inhibition: 0%
[21]
  inhibition: 40%
[22]
  inhibition: 59%
[23]
  inhibition: 10%
[24]
  inhibition: 0%
[25]
  inhibition: 26%
[26]
  inhibition: 32%
[27]
  inhibition: 29%

## Cn1cnc2c(NCc3ccccc3)nc(NCCO)nc21
[1]
  inhibition: 5%
[2]
  inhibition: 0%
[3]
  inhibition: 0%
[4]
  inhibition: 0%
[5]
  inhibition: 0%
[6]
  inhibition: 0%
[7]
  inhibition: 0%
[8]
  inhibition: 3%
[9]
  inhibition: 0%
[10]
  inhibition: 0%
[11]
  inhibition: 0%
[12]
  inhibition: 0%
[13]
  inhibition: 0%
[14]
  inhibition: 0%
[15]
  inhibition: 0%
[16]
  inhibition: 0%
[17]
  inhibition: 6%
[18]
  inhibition: 0%
[19]
  inhibition: 0%
[20]
  inhibition: 4%
[21]
  inhibition: 0%
[22]
  inhibition: 0%
[23]
  inhibition: 7%
[24]
  inhibition: 0%
[25]
  inhibition: 5%
[26]
  inhibition: 0%
[27]
  inhibition: 0%

## NC(=O)c1sc(-c2ccsc2)cc1N
[1]
  inhibition: 0%
[2]
  inhibition: 0%
[3]
  inhibition: 0%
[4]
  inhibition: 11%
[5]
  inhibition: 0%
[6]
  inhibition: 0%
[7]
  inhibition: 0%
[8]
  inhibition: 0%
[9]
  inhibition: 0%
[10]
  inhibition: 0%
[11]
  inhibition: 0%
[12]
  inhibition: 0%
[13]
  inhibition: 0%
[14]
  inhibition: 0%
[15]
  inhibition: 2%
[16]
  inhibition: 0%
[17]
  inhibition: 0%
[18]
  inhibition: 0%
[19]
  inhibition: 0%
[20]
  inhibition: 0%
[21]
  inhibition: 0%
[22]
  inhibition: 0%
[23]
  inhibition: 0%
[24]
  inhibition: 0%
[25]
  inhibition: 0%
[26]
  inhibition: 24%
[27]
  inhibition: 0%

## O=C1Nc2ccc(I)cc2/C1=C/c1cc(Br)c(O)c(Br)c1
[1]
  inhibition: 19%
[2]
  inhibition: 13%
[3]
  inhibition: 0%
[4]
  inhibition: 10%
[5]
  inhibition: 12%
[6]
  inhibition: 0%
[7]
  inhibition: 10%
[8]
  inhibition: 2%
[9]
  inhibition: 0%
[10]
  inhibition: 0%
[11]
  inhibition: 0%
[12]
  inhibition: 5%
[13]
  inhibition: 10%
[14]
  inhibition: 11%
[15]
  inhibition: 11%
[16]
  inhibition: 4%
[17]
  inhibition: 4%
[18]
  inhibition: 0%
[19]
  inhibition: 0%
[20]
  inhibition: 26%
[21]
  inhibition: 23%
[22]
  inhibition: 14%
[23]
  inhibition: 11%
[24]
  inhibition: 0%
[25]
  inhibition: 9%
[26]
  inhibition: 19%
[27]
  inhibition: 0%

## CC(C)[C@H](CO)Nc1nc(Nc2ccc(C(=O)O)c(Cl)c2)c2ncn(C(C)C)c2n1
[1]
  inhibition: 0%
[2]
  inhibition: 0%
[3]
  inhibition: 3%
[4]
  inhibition: 2%
[5]
  inhibition: 66%
[6]
  inhibition: 0%
[7]
  inhibition: 2%
[8]
  inhibition: 5%
[9]
  inhibition: 0%
[10]
  inhibition: 0%
[11]
  inhibition: 0%
[12]
  inhibition: 0%
[13]
  inhibition: 0%
[14]
  inhibition: 0%
[15]
  inhibition: 3%
[16]
  inhibition: 44%
[17]
  inhibition: 0%
[18]
  inhibition: 11%
[19]
  inhibition: 3%
[20]
  inhibition: 15%
[21]
  inhibition: 81%
[22]
  inhibition: 79%
[23]
  inhibition: 3%
[24]
  inhibition: 7%
[25]
  inhibition: 21%
[26]
  inhibition: 50%
[27]
  inhibition: 9%
